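Five compound concentrations were applied to cells in 96-well plates for 48 hours; endpoints were derived by simple linear interpolation of the resulting dose-response curve. GI50 is the concentration that inhibits growth by half. TGI marks complete inhibition of growth.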
Legend:
Test in all cases: NCI tumour cell line growth inhibition, 48 h
[1] = system: 786-0 renal
[2] = system: SNB-19 CNS
[3] = system: M14 melanoma
[4] = system: SK-MEL-2 melanoma
[5] = system: OVCAR-8 ovarian
[6] = system: NCI-H23 lung
[7] = system: SK-MEL-5 melanoma
[8] = system: SN12C renal
[9] = system: T-47D breast
[10] = system: NCI/ADR-RES ovarian

| Structure (SMILES) | TGI [1] [µM] | TGI [2] [µM] | TGI [3] [µM] | TGI [4] [µM] | TGI [5] [µM] | TGI [6] [µM] | TGI [7] [µM] | TGI [8] [µM] | GI50 [1] [µM] | GI50 [9] [µM] | TGI [9] [µM] | GI50 [2] [µM] | GI50 [3] [µM] | GI50 [4] [µM] | GI50 [5] [µM] | GI50 [6] [µM] | GI50 [7] [µM] | GI50 [8] [µM] | GI50 [10] [µM] | TGI [10] [µM] |
| --- | --- | --- | --- | --- | --- | --- | --- | --- | --- | --- | --- | --- | --- | --- | --- | --- | --- | --- | --- | --- |
| CCCNC(=O)c1cc2ccccc2cc1C(=O)OC | > 100 | > 100 | > 100 | > 100 | > 100 | > 100 | > 100 | > 100 |  |  |  |  |  |  |  |  |  |  |  |  |
| CCN(CC)c1ccc(/C=C/C(=O)c2cccc(NS(C)(=O)=O)c2)cc1 | > 100 | > 100 | > 100 | > 100 | > 100 | > 100 | > 100 | > 100 | 4.98 | 4.29 | > 100 | 86 | 4.1 | > 100 | > 100 | 4.51 | 4.21 | 6.69 |  |  |
| CCOC(=O)CNC(SC)=C(C#N)C#N | > 100 | > 100 | > 100 |  | > 100 | > 100 | > 100 | > 100 |  |  |  |  |  |  |  |  |  |  |  |  |
| CCOC(=O)c1c(-c2[nH]c(C(=O)OCc3ccccc3)c(C)c2C(=O)OCC)[nH]c(C(=O)OCc2ccccc2)c1C | > 100 |  | > 100 | > 100 | > 100 |  | > 100 | > 100 |  |  |  |  |  |  |  |  |  |  |  |  |
| O=C(O)c1cn(C2CC2)c2cc(N3CCN(S(=O)(=O)c4ccc(Cl)c(Cl)c4)CC3)c(F)cc2c1=O | > 100 | > 100 | > 100 |  | > 100 |  | 4.42 | > 100 | 4.02 | 3.77 | > 100 | 3.25 | 4.06 |  | 3.33 |  | 2.04 | 2.97 | 4.01 | > 100 |
| OCCc1cnco1 | > 100 | > 100 | > 100 |  | > 100 | > 100 | > 100 | > 100 |  |  |  |  |  |  |  |  |  |  |  |  |
| O=C1C2Cc3ccccc3CN2C(=O)N1CN1CCN(CN2C(=O)C3Cc4ccccc4CN3C2=O)CC1 (centres undefined) | > 100 | > 100 |  | > 100 | > 100 | > 100 | > 100 | > 100 |  |  |  |  |  |  |  |  |  |  |  |  |
| Cc1cn(C2C=CC(=O)C(C)O2)c(=O)[nH]c1=O (centres undefined) | 32.2 | 43.9 | 29.7 |  | 35.5 | 37.1 | 28.1 | 29.8 |  |  |  |  |  |  |  |  |  |  |  |  |
| COc1cc2c(c3oc(-c4ccc5c(c4)OCO5)c(O)c(=O)c13)CCC(C)(C)O2 | > 100 | > 100 | > 100 | > 100 | > 100 | > 100 | > 100 | > 100 |  |  |  |  |  |  |  |  |  |  |  |  |
| COc1cc2ccc(CC#N)cc2cc1OC | > 100 | > 100 |  | > 100 | > 100 | > 100 | > 100 | > 100 |  |  |  |  |  |  |  |  |  |  |  |  |
| COc1cc(NCC(C#N)C#N)ccc1N=Nc1ccc([N+](=O)[O-])cc1 | > 100 | > 100 | > 100 | > 100 | > 100 | > 100 | > 100 | > 100 |  |  |  |  |  |  |  |  |  |  |  |  |
| CC1SC2=NC3=C(c4ccccc4C3=O)C(c3ccc(Br)cc3)N2C1=O (centres undefined) | > 100 | > 100 | > 100 | > 100 | > 100 | > 100 | > 100 | > 100 |  |  |  |  |  |  |  |  |  |  |  |  |
| COc1ccc(CNc2nc3ccccc3nc2-c2cccs2)cc1OC | > 100 | > 100 |  | > 100 | > 100 | > 100 |  | > 100 |  |  |  |  |  |  |  |  |  |  |  |  |
| C#CCOCn1cnc2ncnc(Cl)c21 | > 100 | > 100 | > 100 | > 100 | > 100 | > 100 | > 100 | > 100 |  |  |  |  |  |  |  |  |  |  |  |  |
| CCC[CH2][Sn]1([CH2]CCC)[O]C(=O)C[S]1 | 2.83 | 2.5 | 4.43 | 2.33 | 5.46 | 2.64 | 3 | 5.09 | 1.49 |  |  | 1.22 | 2.05 | 0.975 | 2.11 | 1.28 | 1.44 | 1.91 |  |  |
| COC1=NN2C(OC)(c3ccccc3)c3c(-c4ccccc4)sc(-c4ccccc4)c3C2(c2ccccc2)S1 (centres undefined) | > 100 | > 100 | > 10 | > 100 | > 100 | > 100 |  | > 100 |  |  |  |  |  |  |  |  |  |  |  |  |

— PubChem BioAssay (NCI)
